Values after ≈ are worked out from the molar mass of the structure shown.
Assays:
[1] = system: Mycobacterium tuberculosis (RFP sensitive); experiment: Antibacterial activity (MIC) against Mycobacterium tuberculosis (RFP sensitive); format: cell-based
M. intracellulare = experiment: Antibacterial activity (MIC) against M. intracellulare; format: cell-based, Mycobacterium intracellulare
Experimental: Antibacterial activity of the compounds of the invention was measured in accordance with the method described in the literature of Antimicrob. Agents and Chemother., 38, 2877 (1994), and the results are shown in Tables 3 to 8 in terms of MIC (μg/ml). In the tables, “OFLX” is an abbreviation of “OFLOXAIN”.

M. avium = experiment: Antibacterial activity (MIC) against M. avium; format: cell-based, Mycobacterium avium
Experimental: Antibacterial activity of the compounds of the invention was measured in accordance with the method described in the literature of Antimicrob. […] In the tables, “OFLX” is an abbreviation of “OFLOXAIN”.

[2] = M. tuberculosis Kurono, Table 5
[3] = M. tuberculosis No. 40, Table 5
[4] = M. tuberculosis No. 41, Table 5
[5] = M. tuberculosis No. 43, Table 5
[6] = M. tuberculosis No. 68, Table 5
[7] = M. intracellulare N-294, Table 3
[8] = M. intracellulare N-313, Table 3
[9] = M. intracellulare N-338, Table 3
[10] = M. intracellulare N-345, Table 3

SMILES	MIC ([1]; M. tuberculosis H37Rv, Table 5) [µg/mL]	MIC [1, 2] [µg/mL]	MIC [1, 3] [µg/mL]	MIC [1, 4] [µg/mL]	MIC [1, 5] [µg/mL]	MIC [1, 6] [µg/mL]	MIC (M. intracellulare; [7]) [µg/mL]	MIC (M. intracellulare; [8]) [µg/mL]	MIC (M. intracellulare; [9]) [µg/mL]	MIC (M. intracellulare; [10]) [µg/mL]	MIC (M. avium; M. avium N-357, Table 3) [µg/mL]	MIC (M. avium; M. avium N-444, Table 3) [µg/mL]	MIC (M. avium; M. avium N-458, Table 3) [µg/mL]	MIC (M. avium; M. avium N-472, Table 3) [µg/mL]	further results
CCC1CN(c2c(F)cc3c(=O)c(C(=O)O)cn(C4CC4)c3c2OC)CCN1 (stereo not drawn) [Compd. 17]	–	–	–	–	–	–	–	–	–	–	–	–	–	–	MIC ([1]; M. tuberculosis H37Rv, Table 6 (series 2)): 0.12 µg/mL (≈ 0.308 µM); MIC ([1]; M. tuberculosis Kurono, Table 6 (series 2)): 0.12 µg/mL (≈ 0.308 µM); MIC ([1]; M. tuberculosis No. 40, Table 6 (series 2)): 0.12 µg/mL (≈ 0.308 µM); MIC ([1]; M. tuberculosis No. 41, Table 6 (series 2)): 0.06 µg/mL (≈ 0.154 µM); MIC ([1]; M. tuberculosis No. 43, Table 6 (series 2)): 2.0 µg/mL (≈ 5.14 µM); MIC ([1]; M. tuberculosis No. 68, Table 6 (series 2)): 0.25 µg/mL (≈ 0.642 µM); MIC (M. intracellulare; M. intracellulare N-294, Table 4 (series 2)): 2.0 µg/mL (≈ 5.14 µM); MIC (M. intracellulare; M. intracellulare N-313, Table 4 (series 2)): 0.25 µg/mL (≈ 0.642 µM); MIC (M. intracellulare; M. intracellulare N-338, Table 4 (series 2)): 1.0 µg/mL (≈ 2.57 µM); MIC (M. intracellulare; M. intracellulare N-345, Table 4 (series 2)): 1.0 µg/mL (≈ 2.57 µM); MIC (M. avium; M. avium N-357, Table 4 (series 2)): 1.0 µg/mL (≈ 2.57 µM); MIC (M. avium; M. avium N-444, Table 4 (series 2)): 2.0 µg/mL (≈ 5.14 µM); MIC (M. avium; M. avium N-458, Table 4 (series 2)): 1.0 µg/mL (≈ 2.57 µM); MIC (M. avium; M. avium N-472, Table 4 (series 2)): 8.0 µg/mL (≈ 20.5 µM)
COc1c(N2CC(N)C3(CC3)C2)c(F)cc2c(=O)c(C(=O)O)cn([C@@H]3C[C@@H]3F)c12 (stereo partly drawn) [Compd. 8]	0.10 (≈ 0.247 µM)	0.05 (≈ 0.123 µM)	0.10 (≈ 0.247 µM)	0.006 (≈ 0.0148 µM)	0.78 (≈ 1.92 µM)	0.20 (≈ 0.493 µM)	1.56 (≈ 3.85 µM)	0.39 (≈ 0.962 µM)	1.56 (≈ 3.85 µM)	1.56 (≈ 3.85 µM)	1.56 (≈ 3.85 µM)	1.56 (≈ 3.85 µM)	0.78 (≈ 1.92 µM)	3.13 (≈ 7.72 µM)	–
COc1c(N2CC3CCCNC3C2)c(F)cc2c(=O)c(C(=O)O)cn([C@@H]3C[C@@H]3F)c12 (stereo partly drawn) [Compd. 6]	0.10 (≈ 0.238 µM)	0.05 (≈ 0.119 µM)	0.10 (≈ 0.238 µM)	0.013 (≈ 0.031 µM)	0.78 (≈ 1.86 µM)	0.05 (≈ 0.119 µM)	0.78 (≈ 1.86 µM)	0.78 (≈ 1.86 µM)	1.56 (≈ 3.72 µM)	3.13 (≈ 7.46 µM)	0.39 (≈ 0.93 µM)	1.56 (≈ 3.72 µM)	0.78 (≈ 1.86 µM)	3.13 (≈ 7.46 µM)	–
COc1c(N2CC(N)C3(CC3)C2)c(F)cc2c(=O)c(C(=O)O)cn(C3CC3)c12 (stereo not drawn) [Compd. 7]	–	–	–	–	–	–	0.78 (≈ 2.01 µM)	0.2 (≈ 0.516 µM)	0.39 (≈ 1.01 µM)	1.56 (≈ 4.03 µM)	0.39 (≈ 1.01 µM)	1.56 (≈ 4.03 µM)	0.78 (≈ 2.01 µM)	6.25 (≈ 16.1 µM)	–
Cc1c(N2CC(N)C3(CC3)C2)c(F)cc2c(=O)c(C(=O)O)cn(C3CC3)c12 (stereo not drawn) [Compd. 11]	0.05 (≈ 0.135 µM)	0.05 (≈ 0.135 µM)	0.05 (≈ 0.135 µM)	0.013 (≈ 0.035 µM)	0.39 (≈ 1.05 µM)	0.05 (≈ 0.135 µM)	1.56 (≈ 4.2 µM)	0.39 (≈ 1.05 µM)	1.56 (≈ 4.2 µM)	3.13 (≈ 8.43 µM)	0.39 (≈ 1.05 µM)	1.56 (≈ 4.2 µM)	0.39 (≈ 1.05 µM)	3.13 (≈ 8.43 µM)	–
O=C(O)c1cn(C2CC2)c2c(Cl)c(N3CC4CCCNC4C3)c(F)cc2c1=O (stereo not drawn) [Compd. 1]	0.025 (≈ 0.0616 µM)	0.013 (≈ 0.032 µM)	0.025 (≈ 0.0616 µM)	<0.003	0.20 (≈ 0.493 µM)	0.025 (≈ 0.0616 µM)	0.39 (≈ 0.961 µM)	0.10 (≈ 0.246 µM)	0.39 (≈ 0.961 µM)	0.39 (≈ 0.961 µM)	0.10 (≈ 0.246 µM)	0.20 (≈ 0.493 µM)	0.20 (≈ 0.493 µM)	1.56 (≈ 3.84 µM)	–

— US7176313B2, “Anti acid-fast bacterial agent containing pyridonecarboxylic acids as active ingredient” (Daiichi Pharmaceutical Co., Ltd., priority 2000, dated 2007)
